The experiment has as its target T1, KRAS G12D (Homo sapiens, UniProt P01116, G12D).
T1 construct: made in house; host or cells: Escherichia coli BL21 (DE3), pET28a
The experiment in a line: Inhibitory activity on KRAS G12D nucleotide (GDP-GTP) exchange reaction in vitro (SOS1-dependent, BODIPY FL GDP). The experiment is classed as biochemical. Conditions: BODIPY FL GDP-bound recombinant KRAS G12D, 25° C. 1 hour preincubation, then SOS1 and GMPPNP 30 minutes at room temperature. The text has this:
Test Example: Evaluation of Inhibitory Activity of Compounds of Examples 1-21 on KRAS G12D Nucleotide (GDP-GTP) Exchange Reaction In Vitro
Recombinant KRAS G12D (conjugated N-terminus His6-tag, TEV protease cleavage site and KRAS G12D residues 1-169 (SEQ ID NO: 1), prepared by the method described below) and cleaved recombinant SOS1 (residues 564-1049 (SEQ ID NO: 2), prepared by the method described below) proteins were expressed in E. coli and purified by affinity chromatography.
To prepare BODIPY FL (fluorescent dye) GDP-bound KRAS G12D protein, 50 μM KRAS G12D protein was incubated with 0.5 mM BODIPY FL GDP in a loading buffer (20 mM Tris-HCl (pH 7.5), 50 mM NaCl, 1 mM DTT and 2.5 mM EDTA) for 1 hour on ice. After the incubation, MgCl2 was added to a final concentration of 10 mM, followed by incubation at room temperature for 30 minutes.
The mixture was allowed to pass through a NAP-5 column to remove free nucleotides, and purified BODIPY FL GDP-bound KRAS G12D protein was used for compound evaluation.
For the measurement of the inhibitory activity of compounds on GDP-GTP exchange rate of recombinant KRAS G12D, BODIPY FL GDP-bound KRAS G12D protein was incubated with various concentrations of compounds of Formula (I), i.e., compounds of Examples 1-21, in a reaction buffer (20 mM Tris-HCl (pH 7.5), 100 mM NaCl, 1 mM MgCl2, 2 mM DTT, 0.1% Tween 20) at 25° C. for 1 hour.
After the incubation, recombinant SOS1 and GMPPNP (guanosine-5′-[(β,γ)-imido]triphosphate, tetralithium salt) (Jena Bioscience GmbH, Jena, Germany) were added and incubated at room temperature for 30 minutes to proceed SOS1-dependent GDP-GTP exchange reaction on KRAS G12D. Replacement of BODIPY FL GDP by GMPPNP was measured by calculating the ratio of fluorescence intensities of BODIPY FL before and after the exchange reaction.
Inhibition % was calculated by setting the fluorescence ratio from the reaction without test compound (DMSO control) and the fluorescence ratio from the reaction without SOS1 and GMPPNP as 0% and 100% inhibition, respectively. IC50 values were calculated from a dose titration curve using curve fitting by XLfit software (IDBS, Boston, Massachusetts, US).
T1 sequence (P01116 with tags, fused parts or gaps isoform P01116-2 G12D): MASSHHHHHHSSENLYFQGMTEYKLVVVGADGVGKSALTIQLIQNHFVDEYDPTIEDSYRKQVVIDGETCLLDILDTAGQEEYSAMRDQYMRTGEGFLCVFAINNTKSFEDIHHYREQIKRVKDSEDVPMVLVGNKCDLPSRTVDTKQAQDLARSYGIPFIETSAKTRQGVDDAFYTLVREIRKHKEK
For `C[C@@H]1NC[C@H]1N(C)C(=O)c1c(Cl)nc(CNc2n[nH]c3cc(Cl)c(C(C)(C)C)cc23)n1C` (relative stereo) [Example 11], the IC50 was found to be 43.7 µM.
For `C[C@H]1CNC[C@@H]1N(C)C(=O)c1c(Cl)nc(CNc2n[nH]c3cc(Cl)c(C(C)(C)C)cc23)n1C` (relative stereo) [Example 13, 2-(((5-(tert-butyl)-6-chloro-1H-indazol-3-yl)amino)methyl)-4-chloro-N,1-dimethyl-N-(trans-4-methylpyrrolidin-3-yl)-1H-imidazole-5-carboxamide], the IC50 amounted to 17.1 µM.
Then `C[C@@H]1CNC[C@@H]1N(C)C(=O)c1c(Cl)nc(CNc2n[nH]c3cc(Cl)c(C(C)(C)C)cc23)n1C` (relative stereo) [Example 14, 2-(((5-(tert-butyl)-6-chloro-1H-indazol-3-yl)amino)methyl)-4-chloro-N,1-dimethyl-N-(cis-4-methylpyrrolidin-3-yl)-1H-imidazole-5-carboxamide], with 43.1 µM; and `CN(C(=O)c1c(Cl)nc(CNc2n[nH]c3cc(Cl)c(C(C)(C)C)cc23)n1C)C1CNC1` [Example 1, N-(azetidin-3-yl)-2-(((5-(tert-butyl)-6-chloro-1H-indazol-3-yl)amino)methyl)-4-chloro-N,1-dimethyl-1H-imidazole-5-carboxamide], with 20.7 µM.
As to `CN(C(=O)c1c(Cl)nc(CNc2n[nH]c3cc(Cl)c(C(C)(C)C)cc23)n1C)[C@H]1CCNC1` [Example 2, (S)-2-(((5-(tert-butyl)-6-chloro-1H-indazol-3-yl)amino)methyl)-4-chloro-N,1-dimethyl-N-(pyrrolidin-3-yl)-1H-imidazole-5-carboxamide], the IC50 came out at 12.4 µM.
Then `CN(C(=O)c1c(Cl)nc(CNc2n[nH]c3cc(Cl)c(C(C)(C)C)cc23)n1C)[C@@H]1CCNC1` [Example 3, (R)-2-(((5-(tert-butyl)-6-chloro-1H-indazol-3-yl)amino)methyl)-4-chloro-N,1-dimethyl-N-(pyrrolidin-3-yl)-1H-imidazole-5-carboxamide], with 18.7 µM; and `Cn1c(CNc2n[nH]c3cc(Cl)c(C(C)(C)C)cc23)nc(Cl)c1C(=O)N1CCCNCC1` [Example 4, (2-(((5-(tert-butyl)-6-chloro-1H-indazol-3-yl)amino)methyl)-4-chloro-1-methyl-1H-imidazol-5-yl)(1,4-diazepan-1-yl)methanone], with 38 µM; and `CC(C)N1CC[C@@H](n2c(CNc3n[nH]c4cc(Cl)c(C(C)(C)C)cc34)nc(Cl)c2C(=O)N(C)[C@@H]2CCNC2)C1` [Example 5, 2-(((5-(tert-butyl)-6-chloro-1H-indazol-3-yl)amino)methyl)-4-chloro-1-((R)-1-isopropylpyrrolidin-3-yl)-N-methyl-N-((R)-pyrrolidin-3-yl)-1H-imidazole-5-carboxamide], with 1.3 µM.
In the case of `CC(C)N1CC[C@@H](n2c(CNc3n[nH]c4cc(Cl)c(C(C)(C)C)cc34)nc(Cl)c2C(=O)N(C)C2CNC2)C1` [Example 6, (R)-N-(azetidin-3-yl)-2-(((5-(tert-butyl)-6-chloro-1H-indazol-3-yl)amino)methyl)-4-chloro-1-(1-isopropylpyrrolidin-3-yl)-N-methyl-1H-imidazole-5-carboxamide] it was 3.8 µM.
In the case of `CN(CCN)C(=O)c1c(Cl)nc(CNc2n[nH]c3cc(Cl)c(C(C)(C)C)cc23)n1C` [Example 7, N-(2-aminoethyl)-2-(((5-(tert-butyl)-6-chloro-1H-indazol-3-yl)amino)methyl)-4-chloro-N,1-dimethyl-1H-imidazole-5-carboxamide] it was 43.5 µM; in that of `CC(C)N1CC[C@@H](n2c(CNc3n[nH]c4cc(Cl)c(C(C)(C)C)cc34)nc(Cl)c2C(=O)N(C)CCN)C1` [Example 8, (R)-N-(2-aminoethyl)-2-(((5-(tert-butyl)-6-chloro-1H-indazol-3-yl)amino)methyl)-4-chloro-1-(1-isopropylpyrrolidin-3-yl)-N-methyl-1H-imidazole-5-carboxamide], 35.3 µM.
For `CC[C@@H]1CNC[C@@H]1N(C)C(=O)c1c(Cl)nc(CNc2n[nH]c3cc(Cl)c(C(C)(C)C)cc23)n1C` [Example 9, 2-(((5-(tert-butyl)-6-chloro-1H-indazol-3-yl)amino)methyl)-4-chloro-N-((3R,4R)-4-ethylpyrrolidin-3-yl)-N,1-dimethyl-1H-imidazole-5-carboxamide], the half-inhibitory concentration (IC50) came out at 33.5 µM.
Then `CN(C(=O)c1c(Cl)nc(CNc2n[nH]c3cc(Cl)c(C(C)(C)C)cc23)n1C)[C@@H]1CNCC12CC2` [Example 10, (S)-2-(((5-(tert-butyl)-6-chloro-1H-indazol-3-yl)amino)methyl)-4-chloro-N,1-dimethyl-N-(5-azaspiro[2.4]heptan-7-yl)-1H-imidazole-5-carboxamide], with 46.9 µM.
In the case of `CN[C@H]1C[C@@H]1N(C)C(=O)c1c(Cl)nc(CNc2n[nH]c3cc(Cl)c(C(C)(C)C)cc23)n1C` [Example 12, 2-(((5-(tert-butyl)-6-chloro-1H-indazol-3-yl)amino)methyl)-4-chloro-N,1-dimethyl-N-((1S,2S)-2-(methylamino)cyclopropyl)-1H-imidazole-5-carboxamide] it was 38.2 µM; in that of `CN(C(=O)c1c(Cl)nc(CNc2cc(C(C)(C)C)c(Cl)cc2O)n1C)[C@@H]1CCNC1` [Example 15, (R)-2-(((5-(tert-butyl)-4-chloro-2-hydroxyphenyl)amino)methyl)-4-chloro-N,1-dimethyl-N-(pyrrolidin-3-yl)-1H-imidazole-5-carboxamide], 32.9 µM; in that of `CN(C(=O)c1c(Cl)nc(CNc2cc(C(C)(C)C)c(Cl)cc2O)n1C)[C@H]1CCNC1` [Example 16, (S)-2-(((5-(tert-butyl)-4-chloro-2-hydroxyphenyl)amino)methyl)-4-chloro-N,1-dimethyl-N-(pyrrolidin-3-yl)-1H-imidazole-5-carboxamide], 26.2 µM.
With `CN(C(=O)c1c(Cl)nc(CNc2cc(C(C)(C)C)c(Cl)cc2O)n1C)C1CNC1` [Example 17, N-(azetidin-3-yl)-2-(((5-(tert-butyl)-4-chloro-2-hydroxyphenyl)amino)methyl)-4-chloro-N,1-dimethyl-1H-imidazole-5-carboxamide], the 50% inhibitory concentration (IC50) was found to be 12 µM.
In the case of `CC(C)N1CC[C@@H](n2c(CNc3cc(C(C)(C)C)c(Cl)cc3O)nc(Cl)c2C(=O)N(C)[C@@H]2CCNC2)C1` [Example 18, 2-(((5-(tert-butyl)-4-chloro-2-hydroxyphenyl)amino)methyl)-4-chloro-1-((R)-1-isopropylpyrrolidin-3-yl)-N-methyl-N-((R)-pyrrolidin-3-yl)-1H-imidazole-5-carboxamide] it was 1.6 µM; in that of `CC(C)N1CC[C@@H](n2c(CNc3cc(C(C)(C)C)c(Cl)cc3O)nc(Cl)c2C(=O)N(C)[C@H]2CCNC2)C1` [Example 19, 2-(((5-(tert-butyl)-4-chloro-2-hydroxyphenyl)amino)methyl)-4-chloro-1-((R)-1-isopropylpyrrolidin-3-yl)-N-methyl-N-((S)-pyrrolidin-3-yl)-1H-imidazole-5-carboxamide], 3.7 µM; in that of `CC(C)N1CC[C@@H](n2c(CNc3cc(C(C)(C)C)c(Cl)cc3O)nc(Cl)c2C(=O)N(C)C2CNC2)C1` [Example 20, (R)-N-(azetidin-3-yl)-2-(((5-(tert-butyl)-4-chloro-2-hydroxyphenyl)amino)methyl)-4-chloro-1-(1-isopropylpyrrolidin-3-yl)-N-methyl-1H-imidazole-5-carboxamide], 3.2 µM.
In the case of `CN(C(=O)c1c(Cl)nc(CNc2n[nH]c3cc(Cl)c(C(C)(C)C)cc23)n1C)C1CCNC1` (stereo not drawn) [Example 21, 2-(((5-(tert-butyl)-6-chloro-1H-indazol-3-yl)amino)methyl)-4-chloro-N,1-dimethyl-N-(pyrrolidin-3-yl)-1H-imidazole-5-carboxamide] it was 31.5 µM.

The values are drawn from US12643885B2, “KRAS G12D protein inhibitors” (TAIHO PHARMACEUTICAL CO., LTD., priority 2020, dated 2026).
